Experimental findings from patent US20200017467A1, “NOVEL TRIAZOLE DERIVATIVES” (BAYER CROPSCIENCE AKTIENGESELLSCHAFT, priority 2017, published 2020) are described below.

Assay [1] relates to Septoria tritici. The assay is described as follows: Example F-C: in vivo 5 days preventive Septoria tritici test (wheat). The note with it: Zymoseptoria tritici, 504 h, inoculated 5 days after spraying, evaluated 21 days after inoculation, read-out: Efficacy in % Example F-C. How it is done:
Example F: In Vivo Septoria tritici Test (Wheat); Comparison of Pyridinyloxy-Pyridyl Compounds According to the Invention Vs. Compounds Known from WO-A 2010/146116 [table] To produce a suitable preparation of active compound, 1 part by weight of active compound or active compound combination is mixed with the stated amounts of solvent and emulsifier, and the concentrate is diluted with water to the desired concentration. Example F-C: In Vivo 5 Days Preventive Septoria tritici Test (Wheat) To test for preventive and long-lasting activity, young plants are sprayed with a preparation of active compound or active compound combination at the stated rate of application. After the spray coating has been dried, the plants are placed in the greenhouse at a temperature of approximately 15° C. and a relative atmospheric humidity of approximately 80%. 5 days later the plants are sprayed with a spore suspension of Septoria tritici. The plants remain for 48 hours in an incubation cabinet at approximately 20° C. and a relative atmospheric humidity of approximately 100% and afterwards for 60 hours at approximately 15° C. in a translucent incubation cabinet at a relative atmospheric humidity of approximately 100%. Then the plants are placed in the greenhouse at a temperature of approximately 15° C. and a relative atmospheric humidity of approximately 80%. The test is evaluated 21 days after the inoculation. 0% means an efficacy which corresponds to that of the untreated control, while an efficacy of 100% means that no disease is observed.

In assay [2] the test system is Blumeria graminis fsp. hordei. The assay is described as follows: In vivo preventive Blumeria test (barley). The note with it: 168 h, 500 ppm of active ingredient, preventive spray, evaluated 7 days after inoculation, read-out: efficacy. How it is done:
Example E: In Vivo Preventive Blumeria Test (Barlev) [table] To produce a suitable preparation of active compound, 1 part by weight of active compound or active compound combination was mixed with the stated amounts of solvent and emulsifier, and the concentrate was diluted with water to the desired concentration. To test for preventive activity, young plants were sprayed with the preparation of active compound or active compound combination at the stated rate of application. After the spray coating had been dried, the plants were dusted with spores of Blumeria graminis fsp. hordei. The plants were placed in the greenhouse at a temperature of approximately 18° C. and a relative atmospheric humidity of approximately 80% to promote the development of mildew pustules. The test was evaluated 7 days after the inoculation. 0% means an efficacy which corresponds to that of the untreated control, while an efficacy of 100% means that no disease is observed.

Assay [3] concerns Septoria tritici. The assay is described as follows: In vivo preventive test on Septoria tritici (leaf spot on wheat). Particulars: Zymoseptoria tritici, 576 h, 500 ppm of active ingredient, preventive spray, evaluated 24 days after inoculation, read-out: efficacy. How it is done: Example B: In Vivo Preventive Test on Septoria tritici (Leaf Spot on Wheat) [table] The active ingredients were made soluble and homogenized in a mixture of dimethyl sulfoxide/acetone//Tween® 80 and then diluted in water to the desired concentration. Young plants of wheat were treated by spraying the active ingredient prepared as described above. Control plants were treated only with an aqueous solution of acetone/dimethyl sulfoxide/Tween® 80. After 24 hours, the plants were contaminated by spraying the leaves with an aqueous suspension of Septoria tritici spores. The contaminated wheat plants were incubated for 72 hours at 18° C. and at 100% relative humidity and then for 21 days at 20° C. and at 90% relative humidity. The test was evaluated 24 days after the inoculation. 0% means an efficacy which corresponds to that of the control plants while an efficacy of 100% means that no disease was observed.

On to `CC(O)(Cn1cncn1)c1ccc(Oc2ccc(Br)nc2)nc1C(F)(F)F` (centres unmarked) [I-01, 2-[6-[(6-bromo-3-pyridyl)oxy]-2-(trifluoromethyl)-3-pyridyl]-1-(1,2,4-triazol-1-yl)propan-2-ol], for which the pest or weed control at 500 ppm in the assay on Septoria tritici [1] is 100%; in assay [2], 90 to 100%; with Septoria tritici [3], 90 to 100%.

Take `CC(O)(Cn1cncn1)c1ccc(Oc2ccc(C(F)(F)F)nc2)nc1C(F)(F)F` (centres unmarked) [I-02, 1-(1,2,4-triazol-1-yl)-2-[2-(trifluoromethyl)-6-[[6-(trifluoromethyl)-3-pyridyl]oxy]-3-pyridyl]propan-2-ol]: the pest or weed control at 500 ppm with Septoria tritici [1] is 100%; in assay [2], 90 to 100%; with Septoria tritici [3], 90 to 100%.

Regarding `CC(O)(Cn1cncn1)c1cnc(Oc2ccc(C(F)(F)F)nc2)cc1C(F)(F)F` (centres unmarked) [I-04], the pest or weed control at 500 ppm (in assay [2]; in the assay on Septoria tritici [3]) was 90 to 100% throughout.

With `CC(O)(Cn1cncn1)c1ccc(Oc2ccc(Cl)nc2)nc1C(F)(F)F` (centres unmarked) [I-05], the values for the pest or weed control at 500 ppm (in the assay on Septoria tritici [1]; in assay [2]; in the assay with Septoria tritici [3]) were 63%, 90 to 100% and 90 to 100%, respectively.

As to `CC(O)(Cn1cncn1)c1cnc(Oc2ccc(Cl)nc2)cc1C(F)(F)F` (centres unmarked) [I-06, 2-[6-[(6-chloro-3-pyridyl)oxy]-4-(trifluoromethyl)-3-pyridyl]-1-(1,2,4-triazol-1-yl)propan-2-ol], the pest or weed control at 500 ppm is 88% in the assay with Septoria tritici [1], 90 to 100% in assay [2] and 90 to 100% in the assay with Septoria tritici [3].

On to `CC(O)(Cn1cncn1)c1cnc(Oc2ccc(Br)nc2)cc1C(F)(F)F` (centres unmarked) [I-07], for which the pest or weed control at 500 ppm with Septoria tritici [1] was 100%; in assay [2], 90 to 100%; with Septoria tritici [3] it was 90 to 100%.

`OC(Cn1cncn1)c1ccc(Oc2ccc(C(F)(F)F)nc2)nc1C(F)(F)F` (centres unmarked) [I-09]: the pest or weed control at 500 ppm with Septoria tritici [1] is 100%; in assay [2] it was 90 to 100%; in the assay on Septoria tritici [3] it was 90 to 100%.

Consider `OC(Cn1cncn1)c1cnc(Oc2ccc(Br)nc2)cc1C(F)(F)F` (centres unmarked) [I-13], for which the pest or weed control at 500 ppm in the assay with Septoria tritici [1] is 100%; in assay [2], 90 to 100%; in the assay with Septoria tritici [3], 90 to 100%.
